Reference: patent US20140323504A1, “Pyrazolo[4,3-c]Pyridine Derivatives As Kinase Inhibitors” (Cellzome Limited, priority 2011, published 2014)

What was measured:
TEC = biological target: T1, TEC (Homo sapiens, UniProt P42680); assay: Kinobeads assay with quantitative mass spectrometry, TEC; assay type: binding; settings: Jurkat/Ramos lysate, read-out: TEC inhibition value (IC50)
T1 construct: endogenous in cells; host or cells: 1:1 mix of Jurkat and Ramos cell lysates
T1 sequence (P42680 1-631): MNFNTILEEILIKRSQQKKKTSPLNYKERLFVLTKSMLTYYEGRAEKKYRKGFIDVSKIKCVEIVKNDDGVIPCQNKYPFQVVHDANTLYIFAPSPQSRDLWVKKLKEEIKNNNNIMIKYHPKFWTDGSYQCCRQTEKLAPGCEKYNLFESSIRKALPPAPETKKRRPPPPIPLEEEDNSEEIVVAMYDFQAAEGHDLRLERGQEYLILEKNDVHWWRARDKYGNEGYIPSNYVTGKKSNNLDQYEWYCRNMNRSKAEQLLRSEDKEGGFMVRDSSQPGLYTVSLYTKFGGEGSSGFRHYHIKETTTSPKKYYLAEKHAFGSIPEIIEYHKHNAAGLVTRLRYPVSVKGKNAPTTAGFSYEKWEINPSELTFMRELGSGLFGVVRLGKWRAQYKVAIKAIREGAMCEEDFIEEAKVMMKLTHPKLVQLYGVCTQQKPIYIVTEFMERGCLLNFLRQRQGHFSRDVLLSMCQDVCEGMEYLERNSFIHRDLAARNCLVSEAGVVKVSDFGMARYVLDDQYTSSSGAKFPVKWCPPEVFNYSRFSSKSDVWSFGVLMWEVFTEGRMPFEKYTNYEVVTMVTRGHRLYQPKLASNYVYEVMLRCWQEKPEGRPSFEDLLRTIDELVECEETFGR
Description: Selected compounds of the present invention as described in the previous examples were tested in a Kinobeads™ assay as described (WO-A 2006/134056; Bantscheff et al., 2007. Nature Bioteclmol. 25, 1035-1044).
Compounds were incubated with cell lysate aliquots (1:1 mix of Jurkat and Ramos cell lysates) for 45 minutes at 4° C. and allowed to bind to the proteins in the lysate sample. Then the Kinobeads™ affinity matrix was added to capture proteins that were not interacting with the previously added compound. After this two hour incubation step at 4° C. beads were separated from the lysate and bead bound proteins were eluted in SDS sample buffer and subsequently separated by SDS-Polyacrylamide gel electrophoresis. […] The TMT reagents are a set of multiplexed, amine-specific, stable isotope reagents that can label peptides in up to six different biological samples enabling simultaneous identification and quantitation of peptides. The combined samples were fractionated using reversed-phase chromatography at pH 11 and fractions were subsequently analyzed with a nano-flow liquid chromatography system coupled online to a tandem mass spectrometer (LC-MSMS) experiment followed by reporter ion quantification in the MSMS spectra (Ross et al., 2004. Mol. Cell. Proteomics 3(12):1154-1169; Dayon et al., 2008. Anal. Chem. 80(8):2921-2931; Thompson et al., 2003. Anal. Chem. 75(8):1895-1904). […]

BLK = biological target: T2, BLK (Homo sapiens, UniProt P51451); assay: Radiometric protein kinase assay (33PanQinase, ProQinase), BLK; assay type: biochemical; settings: ATP at apparent Km; read-out: BLK enzyme assay IC50
T2 construct: endogenous in cells; host or cells: 1:1 mix of Jurkat and Ramos cell lysates
Description: A radiometric protein kinase assay (^33PanQinase® Activity Assay; ProQinase GmbH, Freiburg, Germany) was used for measuring the kinase activity of the protein kinases BLK, BTK, ITK and JAK3. All kinase assays were performed in 96-well FlashPlates™ from PerkinElmer (Boston, Mass., USA) in a 50 μl reaction volume. The reaction cocktail was pipetted in four steps in the following order: • 20 μl of assay buffer (standard buffer) • 5 μl of ATP solution (in H2O) • 5 μl of test compound (in 10% DMSO) • 10 μl of substrate/10 μl of enzyme solution (premixed)
The reaction cocktails were incubated at 30° C. for 60 minutes. The reaction was stopped with 50 μl of 2% (v/v) H3PO4, plates were aspirated and washed two times with 200 μl 0.9% (w/v) NaCl. Incorporation of ^33Pi was determined with a microplate scintillation counter (Microbeta, Wallac). All assays were performed with a BeckmanCoulter/SAGIAN™ Core System.

T2 sequence (P51451 whole entry): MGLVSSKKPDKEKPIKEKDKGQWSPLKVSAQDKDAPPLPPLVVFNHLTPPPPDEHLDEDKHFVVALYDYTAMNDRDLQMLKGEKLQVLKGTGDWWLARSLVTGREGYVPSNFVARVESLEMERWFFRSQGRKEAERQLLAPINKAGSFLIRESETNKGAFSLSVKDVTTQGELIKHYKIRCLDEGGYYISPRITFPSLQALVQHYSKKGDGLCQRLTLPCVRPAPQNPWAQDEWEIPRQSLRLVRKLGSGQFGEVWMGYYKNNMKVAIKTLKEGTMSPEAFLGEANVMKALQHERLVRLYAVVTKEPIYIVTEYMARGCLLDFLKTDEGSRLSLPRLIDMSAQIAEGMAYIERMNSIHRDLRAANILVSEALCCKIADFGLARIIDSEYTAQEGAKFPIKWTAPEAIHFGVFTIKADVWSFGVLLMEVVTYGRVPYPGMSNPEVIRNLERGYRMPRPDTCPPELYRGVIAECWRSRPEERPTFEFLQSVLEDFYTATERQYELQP

| Structure (SMILES) | IC50 (TEC) | IC50 (BLK) |
| --- | --- | --- |
| C=CC(=O)Nc1cccc(Cn2ncc3cnc(Nc4cnn(C)c4)nc32)c1 [Example 1, N-(3-((6-((1-Methyl-1H-pyrazol-4-yl)amino)-1H-pyrazolo[3,4-d]pyrimidin-1-yl)methyl)phenyl)acrylamide] | 12 nM | – |
| C=CC(=O)Nc1cc(Cn2ncc3cnc(Nc4cnn(C)c4)nc32)ccc1F [Example 2, […]] | 34 nM | 2000 nM |
